Laboratory results taken from patent US20110275684A1, “NOVEL BENZOTRIAZOLE DERIVATIVES USEFUL FOR THE TREATMENT OF CNS DISORDERS” (NEUROSEARCH A/S, priority 2009, published 2011).

Tested on: not given
Experiment: not given
Details: not given

| Compound | melting point [°C] |
| --- | --- |
| CC[C@@H](C(N)=O)n1nnc2c(Cl)cccc21 [Compound 15, (2S)-2-(4-Chlorobenzotriazol-1-yl)butanamide] | 153 to 154.5 |
| CC[C@@H](C(N)=O)n1nnc2cc(Cl)ccc21 [Compound 18, (2S)-2-(5-Chlorobenzotriazol-1-yl)butanamide] | 175.5 to 177.5 |
| CC[C@H](C(N)=O)n1nnc2c(F)cccc21 [Compound 23, (2R)-2-(4-Fluorobenzotriazol-1-yl)butanamide] | 162.5 to 163.7 |
| NC(=O)Cn1nnc2cc(Br)ccc21 [Compound 13, 2-(5-Bromo-benzotriazol-1-yl)-acetamide] | 221.5 to 222.5 |
| CCC(C(N)=O)n1nnc2c(F)cc(F)cc21 (stereo not drawn) [Compound 7, 2-(4,6-Difluoro-benzotriazol-1-yl)-butyramide] | 199 to 200.5 |
| Brc1ccc2c(c1)nnn2Cc1c[nH]cn1 | 178.3 to 180.8 |
| NC(=O)Cn1nnc2cc(F)cc(F)c21 [Compound 8, 2-(5,7-Difluoro-benzotriazol-1-yl)-acetamide] | 236.5 to 238 |
| CC(C)CC(C(N)=O)n1nnc2ccccc21 (stereo not drawn) [Compound 17, 2-(Benzotriazol-1-yl)-4-methyl-pentanamide] | 177.5 to 178.8 |
| CC(C(N)=O)n1nnc2ccc(F)cc21 (stereo not drawn) [Compound 10, 2-(6-Fluoro-benzotriazol-1-yl)-propionamide] | 156.8 to 158 |
| c1ccc2c(c1)nnn2Cc1c[nH]cn1 | 137.8 to 138.9 |
| NC(=O)Cn1nnc2c(F)cc(F)cc21 [Compound 9, 2-(4,6-Difluoro-benzotriazol-1-yl)-acetamide] | 247.8 to 248.9 |
| CC[C@@H](C(N)=O)n1nnc2c(F)cccc21 [Compound 24, (2S)-2-(4-Fluorobenzotriazol-1-yl)butanamide] | 163.9 to 165.1 |
| CC(C(N)=O)n1nnc2cc(F)ccc21 (stereo not drawn) [Compound 11, 2-(5-Fluoro-benzotriazol-1-yl)-propionamide] | 138.6 to 140.1 |
| CC(C)[C@@H](C(N)=O)n1nnc2ccccc21 [Compound 16, (2S)-2-(Benzotriazol-1-yl)-3-methyl-butanamide] | 164 to 165.7 |
| CCC(C(N)=O)n1nnc2ccc(Br)cc21 (stereo not drawn) [Compound 3, 2-(6-Bromo-benzotriazol-1-yl)-butyramide] | 181.2 to 182.1 |
| CC[C@H](C(N)=O)n1nnc2cc(Br)ccc21 [Compound 21, (2R)-2-(5-Bromobenzotriazol-1-yl)butanamide] | 206.2 to 207.3 |
| Fc1cc(F)c2nnn(Cc3ncc[nH]3)c2c1 | 166 to 167.5 |
| CS(=O)(=O)c1ccc2nnn(CC(N)=O)c2c1 [Compound 5, 2-(6-Methanesulfonyl-benzotriazol-1-yl)-acetamide] | 241.8 to 242.7 |
| CCC(C(N)=O)n1nnc2cc(F)cc(F)c21 (stereo not drawn) [Compound 6, 2-(5,7-Difluoro-benzotriazol-1-yl)-butyramide] | 155 to 156.3 |

Tested on: psychomotor seizures induced via corneal stimulation (6 Hz) in female NMRI mice
Experiment: 6 Hz electroshock seizure model (anticonvulsant properties)
Type: in vivo
Details: Mus musculus, po, 32 mA, 3 s corneal stimulation, p.o., pretreatment time 60 mins, vehicle 5% cremaphor, read-out: ED50 (dose that would give a 50% protection from seizures)
Source text: The animal models being used for the discovery of novel antiepileptic drugs are numerous. Among these, a low frequency (6 Hz) electroshock seizure model has recently come into the limelight as a potential model of pharmacoresistant epilepsy (see Epilepsy: a comprehensive textbook, pag. 1477, by By Jerome Engel, Timothy A. Pedley, Jean Aicardi, Marc A Dichter, Solomon Moshé—2007—Medical), and it is therefore an animal model of primary interest in antiepileptic drug discovery. The compounds of the invention have shown remarkable activity to protect against 6 Hz seizures.
The evaluation of the anticonvulsant properties was carried out in female NMRI mice (20-25 g, Taconic, Denmark). The mice were housed in groups (8 per cage according to weight) with food and water available ad libitum The environment was temperature (20±2° C.) and humidity (55±15%) controlled, and consisted of a 12:12 h light-dark cycle (lights on 06:00 h). The experiments were performed according to the Danish Committee for Experiments on Animals. […]
For screening purposes, the test compound was tested at 1 dose at 1 time-point. In the case of protection of 3 or more out of 8 mice, the compound were further evaluated in dose response (N=8/group). […]

| Compound | ED50 [mg/kg] |
| --- | --- |
| CCC(C(N)=O)n1nnc2ccccc21 (racemic) [Compound 1, 2-Benzotriazol-1-yl-butyramide] | 38 |
| CC[C@@H](C(N)=O)n1nnc2cc(Br)ccc21 [Compound 12, (2S)-2-(5-Bromobenzotriazol-1-yl)butanamide] | 38 |
